≈ marks a conversion by molar mass, not a printed value.
Columns and labels:
in vitro = format: cell-based, human; details: human, CC50 A549
Method: Cytotoxicity—Cytotoxicity assays were carried out using human lung carcinoma cell line A549, as described (Chen et al., “Selective Inhibition of the West Nile Virus Methyltransferase by Nucleoside Analogs,” Antiviral Research 97(3):232-239 (2013), which is hereby incorporated by reference in its entirety). Briefly, the A549 cells (5×10^3) were incubated with/without compounds in a 96-well plate at 37° C. for 48 h. Cell viability was determined using the MTT assay (ATCC) as was described previously (Chen et al., “Selective Inhibition of the West Nile Virus Methyltransferase by Nucleoside Analogs,” Antiviral Research 97(3):232-239 (2013) and Brecher et al., “Identification and Characterization of Novel Broad-Spectrum Inhibitors of the Flavivirus Methyltransferase,” ACS Infectious Diseases 1(8):340-349 (2015), both of which are hereby incorporated by reference in their entirety). N=3.
Cytotoxicity—Cytotoxicity assays were carried out using human lung carcinoma cell line A549, as described. Chen et al., “Selective Inhibition of the West Nile Virus Methyltransferase by Nucleoside Analogs,” Antiviral Res. 97:232-9 (2013), which is hereby incorporated by reference in its entirety. Briefly, the A549 cells (5×10^3) were incubated with/without compounds in a 96-well plate at 37° C. for 48 h. Cell viability was determined using the MTT assay (ATCC) as was described previously (Chen et al., “Selective Inhibition of the West Nile Virus Methyltransferase by Nucleoside Analogs,” Antiviral Research 97(3):232-239 (2013) and Brecher et al., “Identification and Characterization of Novel Broad-Spectrum Inhibitors of the Flavivirus Methyltransferase,” ACS Infectious Diseases 1(8):340-349 (2015), both of which are hereby incorporated by reference in their entirety). N=3.

Prp8 intein [1] = target: T1, Prp8 intein (Cryptococcus gattii, UniProt E6R027); assay: Split Renilla luciferase RLuc-Prp8 intein splicing assay; format: biochemical; details: split Renilla luciferase RLuc-Prp8 intein splicing
Method: Split luciferase Prp8 intein splicing assay—The split RLuc-Prp8 fusion protein was carried out and monitored using a Veritas luminometer, as described previously.
(§1) Split luciferase RLuc-Prp8 and NnLuc-Prp8 intein splicing assays—The split RLuc-Prp8 intein splicing assay was carried out and monitored using a Veritas luminometer, as described previously. […] Microbes. Infect. […] For NnLuc-Prp8 intein splicing assay, the NnLuc-prp8 is diluted in assay buffer (50 mM Tris, 0.1% BSA, 1 mM EDTA, pH 7.4) and 50 ul is added to each well in 96 well black plates. Test molecules or the solvent was added and incubated for 30 to 60 min. A splicing inducer TCEP (50 ul, 100 μM) is added and incubated for 24 h. Luciferase substrate (Furimazine, 25 ul 1:10,000 diluted) is added and luminescence is read using a luminescence reader. IC50 is calculated using Graphpad prism.

C. neoformans H99 strain = assay: Fungal susceptibility test, broth microdilution MIC; format: cell-based, Cryptococcus neoformans; details: Cryptococcus neoformans, H99STRAIN; C. neoformans H99, microbroth dilution; read-out: MIC H99
Method: Fungal susceptibility test—The fungal susceptibility test was carried out with a compound concentration series as described. […] The broth microdilution method was used to determine the compound MIC values against C. neoformans.
Fungal susceptibility test—The fungal susceptibility test was carried out with a compound concentration series as described. […] Microbes. Infect. […] The broth microdilution method was used to determine the compound MIC values against C. neoformans.

Prp8 intein [2] = target: T1, Prp8 intein; assay: Split GFP-Prp8i intein splicing assay; format: biochemical; details: split GFP-Prp8 intein splicing
Method: Cloning, expression and purfication—The split GFP-Prp8i was constructed using a mega-PCR mutagenesis approach. […] After digestion with Dpn I restriction enzyme, the PCR product was transformed into DH5α Escherichia coli. Clones were verified by plasmid DNA sequencing. The expression, refolding and purification of the GFP-Prp8i fusion protein were carried out as described previously.
[…] Then 100 μl 2×TCEP was added to a final concentration of 20 μM. The reactions were incubated at 25° C. overnight. […] Two readings were taken, one prior to addition of TCEP (I0) and one after incubation overnight with TCEP (If). Fluorescence/luminescence differences (ΔFluorescence or ΔLuminescence) were defined as If−I0 for each well. […] DMF control served as 100% splicing activity.
(§2) Split GFP-Prp8 and CJGFP-Prp8 intein splicing assays—Using black and clear bottom 96-well plates, the DPNB-treated, -refolded and -concentrated GFP-Prp8 or CfGFP-Prp8 fusion protein (0.5 μM) was incubated with compounds or Dimethylsulfoxide (DMSO) solvent control for 30 min at 25° C. in a 100 μl intein splicing buffer (20 mM Bis-tris propane, 0.5 M NaCl, 0.5 M arginine, 1 mM EDTA, and 0.05% CHAPS). Then 100 μl 2×TCEP was added to a final concentration of 20 μM. The reactions were incubated at 25° C. overnight. […] Two readings were taken, one prior to addition of TCEP (I0) and one after incubation overnight with TCEP (If). Fluorescence/luminescence differences (ΔFluorescence or ΔLuminescence) were defined as If−I0 for each well. […] DMSO control served as 100% splicing activity.

Prp8 intein [3] = target: T1, Prp8 intein; assay: Split Cys-free (Cf) GFP-Prp8 intein splicing assay; format: biochemical; details: read-out: IC50 CfGFP-Prp8 (converted)
Method: (§3) The constructs for Cys-free (Cf) GFP-Prp8 and Cys-free nanoluciferase NnLuc-Prp8 were codon-optimized, synthesized, and cloned into the pET28a vector using the NcoI and XhoI sites by Gene Universal (Gene Universal, Newark Del.). […] The expression, refolding and purification of the CfGFP-Prp8 and NnLuc-Prp8 fusion proteins were carried out as described previously. […] Microbes. Infect.
as §2

Prp8 intein [4] = target: T1, Prp8 intein; assay: Split nanoluciferase NnLuc-Prp8 intein splicing assay; format: biochemical
Method: as §3, §1

T1 sequence (E6R027 entry or part of it): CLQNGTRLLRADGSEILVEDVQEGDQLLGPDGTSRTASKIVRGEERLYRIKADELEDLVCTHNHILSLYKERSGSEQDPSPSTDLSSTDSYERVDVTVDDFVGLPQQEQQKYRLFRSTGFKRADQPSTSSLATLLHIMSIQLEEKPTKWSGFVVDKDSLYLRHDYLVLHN

SMILES | CC50 at 48 h (in vitro) | IC50 (Prp8 intein [1]) | MIC (C. neoformans H99 strain) | IC50 (Prp8 intein [2]) | IC50 (Prp8 intein [3]) | IC50 (Prp8 intein [4])
O=C(Nc1ccc(Cl)cc1)c1nnsc1Sc1ccc(Cl)cc1 [JMX0570, N-(4-Chlorophenyl)-5-((4-chlorophenyl)thio)-1,2,3-thiadiazole-4-carboxamide] | 83.7 µM | 21.6 µM | > 100 µM | 38.7 µM |  | 
O=C(Nc1ccc(C(F)(F)F)cc1)c1ncsc1S(=O)(=O)c1ccc(Cl)cc1 [JMX0521, 5-((4-Chlorophenyl)sulfonyl)-N-(4-(trifluoromethyl)phenyl)thiazole-4-carboxamide] | 54.1 µM | 29.3 µM | > 100 µM | 50 µM |  | 
O=C(Nc1cc(F)cc(C(F)(F)F)c1)c1ncsc1S(=O)(=O)c1ccc(Cl)cc1 [JMX0522, 5-((4-Chlorophenyl)sulfonyl)-N-(3-fluoro-5-(trifluoromethyl)phenyl) thiazole-4-carboxamide] | 97.7 µM | 20.2 µM | 100 µM (≈ 46.5 µg/mL) | 23.5 µM |  | 
O=C(Nc1ccc(F)cc1F)c1ncsc1S(=O)(=O)c1ccc(Cl)cc1 [JMX0515, 5-((4-Chlorophenyl)sulfonyl)-N-(2,4-difluorophenyl)thiazole-4-carboxamide] | 210 µM | 37.7 µM | > 100 µM | > 50 µM |  | 
O=C(Nc1ccc(F)cc1)c1nnsc1Sc1ccc(Cl)cc1 [JMX0564, 5-((4-Chlorophenyl)thio)-N-(4-fluorophenyl)-1,2,3-thiadiazole-4-carboxamide] | 418 µM | 15.8 µM | > 100 µM | 55.7 µM |  | 
O=C(Nc1ccc(F)c(F)c1)c1ncsc1S(=O)(=O)c1ccc(Cl)cc1 [JMX0520, 5-((4-Chlorophenyl)sulfonyl)-N-(3,4-difluorophenyl)thiazole-4-carboxamide] | 81.6 µM | 27.5 µM | > 100 µM | > 50 µM |  | 
O=C(NCc1ccc(F)cc1)c1nnsc1S(=O)(=O)c1ccc(Cl)cc1 [JMX0574, 5-((4-Chlorophenyl)sulfonyl)-N-(4-fluorobenzyl)-1,2,3-thiadiazole-4-carboxamide] | 21.5 µM | 59.1 µM | 0.78 µM (≈ 0.321 µg/mL) | 1.6 µM |  | 
O=C(Nc1ccc(F)cc1)c1ncsc1S(=O)(=O)c1ccc(Cl)cc1 [JMX0525, 5-((4-Chlorophenyl)sulfonyl)-N-(4-fluorophenyl)thiazole-4-carboxamide] | 309 µM | 6.4 µM | > 100 µM | > 50 µM |  | 
O=C(Nc1ccc(Cl)cc1)c1nnsc1S(=O)(=O)c1ccc(Cl)cc1 [JMX0571, N-(4-Chlorophenyl)-5-((4-chlorophenyl)sulfonyl)-1,2,3-thiadiazole-4-carboxamide] | 33.8 µM | 12.6 µM | 0.39 µM (≈ 0.162 µg/mL) | 1.8 µM |  | 
O=C(Nc1ccc(C(F)(F)F)cc1)c1nnsc1S(=O)(=O)c1ccc(Cl)cc1 [JMX0576, 5-((4-Chlorophenyl)sulfonyl)-N-(4-(trifluoromethyl)phenyl)-1,2,3-thiadiazole-4-carboxamide] | 40.3 µM | 11.9 µM | 0.78 µM (≈ 0.349 µg/mL) | 0.9 µM |  | 
O=C(NCc1ccc(F)cc1)c1ncsc1S(=O)(=O)c1ccc(Cl)cc1 [JMX0541, 5-((4-Chlorophenyl)sulfonyl)-N-(4-fluorobenzyl)thiazole-4-carboxamide] | 114 µM | 10.6 µM | 100 µM (≈ 41.1 µg/mL) | > 50 µM |  | 
O=C(Nc1ccc(Cl)cc1)c1ncsc1S(=O)(=O)c1ccc(Cl)cc1 [JMX0518, N-(4-Chlorophenyl)-5-((4-chlorophenyl)sulfonyl)thiazole-4-carboxamide] | 57.3 µM | 6.5 µM | 50 µM (≈ 20.7 µg/mL) | 28 µM |  | 
O=C(Nc1ccc(F)cc1)c1nnc([S+]([O-])c2ccc(Cl)cc2)s1 (stereo not shown) [JMX0585-2, 5-((4-chlorophenyl)sulfinyl)-N-(4-fluorophenyl)-1,3,4-thiadiazole-2-carboxamide] | 28.5 µM | 20.9 µM | 0.097 µM (≈ 0.037 µg/mL) | 4.5 µM |  | 
O=C(Nc1cc(C(F)(F)F)cc(C(F)(F)F)c1)c1nnsc1S(=O)(=O)c1ccc(Cl)cc1 [JMX1041, N-(3,5-Bis(trifluoromethyl)phenyl)-5-((4-chlorophenyl)sulfonyl)-1,2,3-thiadiazole-4-carboxamide] | 66.7 µM |  | > 50 µM |  | 37.9 µM | 18.5 µM
O=C(Nc1ccc(F)c(Cl)c1)c1nnsc1S(=O)(=O)c1ccc(Cl)cc1 [JMX1037, N-(3-Chloro-4-fluorophenyl)-5-((4-chlorophenyl)sulfonyl)-1,2,3-thiadiazole-4-carboxamide] | 63.2 µM |  | 25 µM (≈ 10.8 µg/mL) |  | 31.4 µM | 14.1 µM
O=C(Nc1ccc(Br)cc1)c1nnsc1S(=O)(=O)c1ccc(Cl)cc1 [JMX1034, N-(4-Bromophenyl)-5-((4-chlorophenyl)sulfonyl)-1,2,3-thiadiazole-4-carboxamide] | 84.8 µM |  | > 50 µM |  | 33.1 µM | 15.4 µM
O=C(Nc1ccc(F)cc1)c1nnsc1S(=O)(=O)c1ccc(F)c(F)c1 [JMX1060, 5-((3,4-Difluorophenyl)sulfonyl)-N-(4-fluorophenyl)-1,2,3-thiadiazole-4-carboxamide] | 61.1 µM |  | 50 µM (≈ 20 µg/mL) |  | 32.8 µM | 23.5 µM
O=C(Nc1ccc(F)c(F)c1)c1nnsc1S(=O)(=O)c1ccc(Cl)cc1 [JMX876, 5-((4-Chlorophenyl)sulfonyl)-N-(3,4-difluorophenyl)-1,2,3-thiadiazole-4-carboxamide] | 163 µM |  | 3.12 µM (≈ 1.3 µg/mL) |  | 33.5 µM | 22 µM
O=C(Nc1c(F)cc(F)cc1F)c1nnsc1S(=O)(=O)c1ccc(Cl)cc1 [JMX1045, 5-((4-Chlorophenyl)sulfonyl)-N-(2,4,6-trifluorophenyl)-1,2,3-thiadiazole-4-carboxamide] | 47.9 µM |  | > 50 µM |  | 34.3 µM | 15.9 µM

Source: US20230233533A1, “COMPOSITIONS, METHODS OF TREATING AND PREVENTING FUNGAL INFECTIONS, AND METHODS OF INHIBITING PRP8 INTEIN EXPRESSION” (Health Research, Inc., priority 2020, published 2023)
